Among the data in paper PMC9335333 (Proceedings of the National Academy of Sciences of the …, 2022) are IC50 values, retold here.

The target of this assay is T1, vesicular nucleotide transporter (VNUT) (Homo sapiens, UniProt Q9BYT1).
T1 sequence (Q9BYT1 1-436): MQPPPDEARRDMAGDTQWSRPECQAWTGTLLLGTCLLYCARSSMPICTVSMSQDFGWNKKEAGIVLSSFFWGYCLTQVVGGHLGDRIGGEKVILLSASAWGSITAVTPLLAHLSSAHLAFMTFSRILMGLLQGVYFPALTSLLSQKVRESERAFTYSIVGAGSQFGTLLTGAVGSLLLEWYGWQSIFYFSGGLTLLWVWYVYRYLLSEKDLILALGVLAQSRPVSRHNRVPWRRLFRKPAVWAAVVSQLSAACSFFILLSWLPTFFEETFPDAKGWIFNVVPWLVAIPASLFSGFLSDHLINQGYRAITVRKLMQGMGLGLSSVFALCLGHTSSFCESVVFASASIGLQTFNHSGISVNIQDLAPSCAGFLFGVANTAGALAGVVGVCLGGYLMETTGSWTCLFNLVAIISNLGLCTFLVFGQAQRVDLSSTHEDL
Briefly: [3H]-ATP uptake in proteoliposomes with purified human VNUT. Type of assay: biochemical.

SMILES strings stand for the structures.

What is called IC50 is the concentration needed to halve the response being measured. The molecule `CC/C=C\C/C=C\C/C=C\C/C=C\C/C=C\CCCC(=O)O` [EPA, eicosapentaenoic acid] gave an IC50 of 67 nM.
